Results from PubChem BioAssay (NCI).
Values joined by “and” are separate entries in the source; they are usually repeats but may differ in a detail not shown here. Equal entries are not always repeated.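 Each compound was tested at five concentrations against cells in 96-well plates for 48 hours. GI50 marks 50% less growth. TGI is the concentration that stops growth completely.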

Experiments:
Test in all cases: NCI anticancer screen, dose series, 48 h
SN12C renal = tested on: SN12C renal
CCRF-CEM leukemia = tested on: CCRF-CEM leukemia
OVCAR-5 ovarian = tested on: OVCAR-5 ovarian
UACC-62 melanoma = tested on: UACC-62 melanoma
MDA-MB-435 = tested on: MDA-MB-435
SK-MEL-28 melanoma = tested on: SK-MEL-28 melanoma
K-562 leukemia = tested on: K-562 leukemia
UACC-257 melanoma = tested on: UACC-257 melanoma
LOX IMVI melanoma = tested on: LOX IMVI melanoma
A498 renal = tested on: A498 renal
CAKI-1 renal = tested on: CAKI-1 renal
SF-539 CNS = tested on: SF-539 CNS

SMILES | TGI (SN12C renal) [µM] | TGI (CCRF-CEM leukemia) [µM] | TGI (OVCAR-5 ovarian) | TGI (UACC-62 melanoma) | TGI (MDA-MB-435) | TGI (SK-MEL-28 melanoma) [µM] | TGI (K-562 leukemia) [µM] | TGI (UACC-257 melanoma) | TGI (LOX IMVI melanoma) [µM] | TGI (A498 renal) | TGI (CAKI-1 renal) | TGI (SF-539 CNS) | GI50 (CCRF-CEM leukemia) [µM] | GI50 (OVCAR-5 ovarian) | GI50 (UACC-62 melanoma) | GI50 (MDA-MB-435) | GI50 (SK-MEL-28 melanoma) | GI50 (SF-539 CNS) | GI50 (LOX IMVI melanoma) | GI50 (CAKI-1 renal)
O=C(/N=C1/OC(CN2CCOCC2)CN1C(=O)Nc1ccccc1)Nc1ccccc1 (configuration not stated) | > 100 | > 100 | > 100 µM | > 100 µM | > 100 µM | > 100 | > 100 | > 100 µM | > 100 | > 100 µM | > 100 µM |  |  |  |  |  |  |  |  | 
Cc1ccc(/C=C2\CCCCCC2=O)cc1 | > 100 | > 100 | > 100 µM | > 100 µM | > 100 µM | > 100 | > 100 | > 100 µM | > 100 | > 100 µM | > 100 µM |  |  |  |  |  |  |  |  | 
[O-]/[N+](=N/c1ncc(-c2ccccc2)cn1)c1ncc(-c2ccccc2)cn1 | > 100 | > 100 | > 100 µM | > 100 µM | > 100 µM | > 100 | > 100 | > 100 µM | > 100 | > 100 µM | > 100 µM | > 100 µM |  |  |  |  |  |  |  | 
O=c1[nH]c2cc3[nH]c(=O)c(=O)[nH]c3cc2[nH]c1=O | > 100 | > 100 | > 100 µM | > 100 µM | > 100 µM | > 100 | > 100 | > 100 µM | > 100 | > 100 µM | > 100 µM | > 100 µM |  |  |  |  |  |  |  | 
C=CCN1C(=O)/C(=C/c2ccc(OC)cc2)N=C1SC1OC(COC(C)=O)C(OC(C)=O)C(OC(C)=O)C1OC(C)=O (configuration not stated) | 89.4 | > 100 | 39.7 µM and > 100 µM | 48.1 µM and > 100 µM | 46.5 µM and > 100 µM | > 100 | > 100 | 45.9 µM and > 100 µM | > 100 | > 100 µM and 86.2 µM | 33 µM and > 100 µM | 44.5 µM and > 100 µM | 21.7 | 19.3 µM and 56.3 µM | 18.8 µM and 43.6 µM | 18.6 µM and > 100 µM | 24.6 µM and > 100 µM | 19.9 µM and 42.8 µM | 21.1 µM and 43.1 µM | 16 µM and > 100 µM
CC(C)(C)CN1[C@@H]2CCCC[C@H]2N(CC(C)(C)C)P1(=O)C(O)/C=C/c1ccccc1 (some centres not stated) | 57.5 | > 100 | > 100 µM | > 100 µM | > 100 µM | > 100 | > 100 | > 100 µM | 37.3 | 89.8 µM | > 100 µM |  |  |  |  |  |  |  |  | 
O=[N+]([O-])c1cc2ccc1OCc1cccc(n1)COc1ccc(cc1[N+](=O)[O-])C=NCCCCCCCCN=C2 | > 100 | > 100 | > 100 µM | > 100 µM | > 100 µM | > 100 | > 100 | > 100 µM | > 100 | > 100 µM | > 100 µM | > 100 µM |  |  |  |  |  |  |  | 
CC1CN=C(NS(=O)(=O)c2cc(C(=O)Nc3ccccc3)c(Cl)cc2S)NN1 (configuration not stated) | > 100 | > 100 | > 100 µM | > 100 µM | 52.5 µM | > 100 | > 100 | > 100 µM | > 100 | 57.4 µM | > 100 µM | > 100 µM |  |  |  |  |  |  |  | 
Cc1ccc(C2=Nn3c(nc4sc5c(c4c3=O)CCCC5)SC2)cc1 | > 100 | > 100 | > 100 µM | > 100 µM | > 100 µM | > 100 | > 100 | > 100 µM | > 100 | > 100 µM | > 100 µM | > 100 µM |  |  |  |  |  |  |  | 
Cn1c(-c2cccs2)cc(-c2ccsc2)c1-c1cccs1 | > 100 | > 100 | > 100 µM | > 100 µM | > 100 µM | > 100 | > 100 | > 100 µM |  | > 100 µM | > 100 µM | > 100 µM |  |  |  |  |  |  |  | 
O=C1Nc2ccccc2/C1=N/N1C(=O)/C(=C/c2ccccc2S)N=C1c1ccccc1 | > 100 | > 100 | > 100 µM | > 100 µM | > 100 µM | > 100 | > 100 | > 100 µM | > 100 | > 100 µM | > 100 µM | > 100 µM |  |  |  |  |  |  |  | 
COc1cc(/C=C2\C(=O)N(c3ccc(NC(C)=O)cc3)C(c3ccccc3)S2(=O)=O)cc(OC)c1OC (configuration not stated) | > 100 | > 100 | > 100 µM | > 100 µM | > 100 µM | > 100 | > 100 | > 100 µM | > 100 | > 100 µM | > 100 µM | > 100 µM |  |  |  |  |  |  |  | 
CC(C)(C)Cc1cc(O)ccc1O | > 100 | 93.9 | > 100 µM | > 100 µM | > 100 µM | > 100 | > 100 | > 100 µM | > 100 | > 100 µM | > 100 µM | > 100 µM |  |  |  |  |  |  |  | 
CCOC(=O)C(C)c1nc2cc(C(F)(F)F)ccc2[nH]c1=O (configuration not stated) | > 100 | > 100 | > 100 µM | > 100 µM | > 100 µM | > 100 | > 100 | > 100 µM | > 100 | > 100 µM | > 100 µM | > 100 µM |  |  |  |  |  |  |  | 
COC(=O)/C=C/c1ccc2c(c1)[C@H](C(=O)OC)[C@@H](c1ccc(O)cc1)O2 | > 100 | 78 | > 100 µM | > 100 µM | 16.2 µM | > 100 | > 100 | > 100 µM | 89.4 | > 100 µM | > 100 µM | > 100 µM |  |  |  |  |  |  |  | 
CC(C)(C)OC(=O)NC(Cc1ccc(OCc2ccccc2)cn1)C(N)=O (configuration not stated) | > 100 | > 100 | > 100 µM |  | > 100 µM | > 100 | > 100 | > 100 µM | > 100 | > 100 µM | > 100 µM | > 100 µM |  |  |  |  |  |  |  | 
CC(C(=O)O)C1Nc2ccccc2NC1=O (configuration not stated) |  | > 100 | > 100 µM | > 100 µM | > 100 µM | > 100 | > 100 | > 100 µM | > 100 | > 100 µM | > 100 µM | > 100 µM |  |  |  |  |  |  |  | 
N#CCCN(CCCN(C(=O)Nc1ccc(NC(=O)N(CCCN(CCC#N)C(N)=O)c2ccccc2)cc1)c1ccccc1)C(N)=O |  | > 100 | > 100 µM | > 100 µM | > 100 µM | > 100 | > 100 | > 100 µM | > 100 | > 100 µM | > 100 µM | > 100 µM |  |  |  |  |  |  |  | 
